Experiments:
Type in all cases: functional
[1] = system: Rhipicephalus sanguineus; assay: Parasiticidal activity against Rhipicephalus sanguineus assessed as mortality after 24 hrs by brown dog tick assay; set-up: concentration or dose not given beside the values
[2] = system: Ctenocephalides felis; assay: Parasiticidal activity against Ctenocephalides felis assessed as mortality after 24 hrs by cat flea assay; set-up: concentration or dose not given beside the values
[3] = system: Haemonchus contortus; assay: Parasiticidal activity against Haemonchus contortus by larval assay
[4] = system: Rhipicephalus sanguineus; assay: Parasiticidal activity against Rhipicephalus sanguineus assessed per tick by brown dog tick assay
[5] = system: Ctenocephalides felis; assay: Parasiticidal activity against Ctenocephalides felis by cat flea assay

Row | SMILES | Activity [1] [%] | Activity [2] [%] | LD99 [3] [µM] | LD50 [4] [µg] | LC50 [5] [ng/cm2]
1 | CC/C(=N\OCC(F)(F)F)c1cc(Cl)ccc1NS(=O)(=O)C(F)(F)F | 80 | 100 |  |  | 
2 | C/C(=N\OCC(F)(F)F)c1cc(Cl)ccc1NS(=O)(=O)C(F)(F)F | 82 | 100 | 18 | 0.94 | 6
3 | C#CCO/N=C(\CC)c1cc(Cl)ccc1NS(=O)(=O)C(F)(F)F | 100 | 100 | 20 | 0.86 | 27
4 | CC/C(=N\Oc1ccc(Cl)c(Cl)c1)c1cc(Cl)ccc1NS(=O)(=O)C(F)(F)F |  | 99 | 1.9 |  | 6
5 | CCO/N=C(\C)c1cc(Cl)ccc1NS(=O)(=O)C(F)(F)F | 85 | 100 | >15 |  | 
6 | CC/C(=N\OCc1cccc(Cl)c1Cl)c1cc(Cl)ccc1NS(=O)(=O)C(F)(F)F |  | 63 | 0.63 |  | 
7 | C/C(=N\OCc1ccc(Cl)cc1)c1ccc(C(F)(F)F)cc1NS(=O)(=O)C(F)(F)F | 27 | 100 |  |  | 
8 | O=S(=O)(Nc1ccc(Cl)cc1/C(=N/OCC1CCCCC1)c1ccccc1)C(F)(F)F | 52 | 8 |  |  | 
9 | C/C(=N\Oc1ccc(Cl)c(Cl)c1)c1cc(Cl)ccc1NS(=O)(=O)C(F)(F)F |  | 71 | 1.6 |  | 
10 | C=CCO/N=C(\C)c1cc(Cl)ccc1NS(=O)(=O)C(F)(F)F | 100 | 100 |  |  | 
11 | C/C(=N\Oc1ccc(Cl)cc1)c1cc(Cl)ccc1NS(=O)(=O)C(F)(F)F |  | 90 | 1 |  | 
12 | CC/C(=N\OC(C)(C)C)c1cc(Cl)ccc1NS(=O)(=O)C(F)(F)F | 90 | 100 |  | 1.5 | 43
13 | c1ccc([C@H]2CN3CCSC3=N2)cc1 [LEVAMISOLE] |  |  | 0.71 |  | 
14 | C/C(=N\Oc1cccc(C(F)(F)F)c1)c1cc(Cl)ccc1NS(=O)(=O)C(F)(F)F |  | 96 | 0.83 |  | 
15 | CC/C(=N\OCc1ccc(Cl)cc1)c1cc(Cl)ccc1NS(=O)(=O)C(F)(F)F | 83 | 100 | 1.7 | 2.5 | 12
16 | CC/C(=N\OC1CCCC1)c1cc(Cl)ccc1NS(=O)(=O)C(F)(F)F | 100 | 100 | 25 | 1.5 | 21
17 | CCC/C(=N\Oc1ccc(F)cc1)c1cc(Cl)ccc1NS(=O)(=O)C(F)(F)F |  | 36 |  |  | 
18 | O=S(=O)(Nc1ccc(Cl)cc1/C(=N/Oc1ccc(F)cc1)c1ccccc1)C(F)(F)F |  | 21 |  |  | 
19 | O=S(=O)(Nc1ccc(Cl)cc1/C(=N/OC1CCCCC1)c1ccccc1)C(F)(F)F | 45 | 12 |  |  | 
20 | CC/C(=N\OCC1CC1)c1cc(Cl)ccc1NS(=O)(=O)C(F)(F)F | 100 | 100 | 36 | 1.2 | 8
21 | CC(C)/C(=N\Oc1ccc(F)cc1)c1cc(Cl)ccc1NS(=O)(=O)C(F)(F)F | 42 | 100 |  |  | 
22 | C/C(=N\Oc1cccc(Cl)c1)c1cc(Cl)ccc1NS(=O)(=O)C(F)(F)F | 47 | 100 | 3.8 |  | 

Row | SMILES | Activity [1] [%] | Activity [2] [%] | LD99 [3] [µM] | LD50 [4] [µg] | LC50 [5] [ng/cm2]
23 | CCO/N=C(\C)c1ccccc1NS(=O)(=O)C(F)(F)F | 90 | 92 | >16 |  | 
24 | CC/C(=N\Oc1cccc(C(F)(F)F)c1)c1cc(Cl)ccc1NS(=O)(=O)C(F)(F)F |  | 71 | 2 |  | 
25 | C/C(=N\OC1CCCCC1)c1ccc(C(F)(F)F)cc1NS(=O)(=O)C(F)(F)F |  | 4 |  |  | 
26 | CC/C(=N\OCc1ccc(Br)cc1)c1cc(Cl)ccc1NS(=O)(=O)C(F)(F)F | 58 | 78 | 1.8 |  | 
27 | C/C(=N\OCC1CCCCC1)c1cc(Cl)ccc1NS(=O)(=O)C(F)(F)F | 100 | 96 |  |  | 
28 | O=S(=O)(Nc1ccc(Cl)cc1/C=N/OCc1ccc(Cl)c(Cl)c1)C(F)(F)F |  | 42 | 1.4 |  | 
29 | CC/C(=N\OCc1ccc(Cl)cc1)c1ccc(C(F)(F)F)cc1NS(=O)(=O)C(F)(F)F | 25 | 100 |  |  | 
30 | CCC/C(=N\OC1CCCCC1)c1cc(Cl)ccc1NS(=O)(=O)C(F)(F)F |  | 43 |  |  | 
31 | CO/N=C(\C)c1cc(Cl)ccc1NS(=O)(=O)C(F)(F)F | 93 | 100 |  |  | 
32 | C/C(=N\OC1CCCCC1)c1cc(Cl)ccc1NS(=O)(=O)C(F)(F)F | 100 | 100 |  |  | 
33 | C/C(=N\Oc1ccc(Br)cc1)c1cc(Cl)ccc1NS(=O)(=O)C(F)(F)F |  | 91 | 0.87 |  | 
34 | CC/C(=N\OCC1CCCC1)c1cc(Cl)ccc1NS(=O)(=O)C(F)(F)F | 90 | 97 |  |  | 
35 | C=CCO/N=C(\CC)c1cc(Cl)ccc1NS(=O)(=O)C(F)(F)F | 100 | 100 | 32 | 0.67 | 21
36 | CC/C(=N\OC)c1cc(Cl)ccc1NS(=O)(=O)C(F)(F)F | 95 | 100 | 16 | 0.89 | 15
37 | CC(C)/C(=N\Oc1ccc(Cl)cc1)c1cc(Cl)ccc1NS(=O)(=O)C(F)(F)F | 65 | 100 | 11 | 1.7 | 71
38 | C/C(=N\OC1CCCC1)c1cc(Cl)ccc1NS(=O)(=O)C(F)(F)F | 100 | 100 |  |  | 
39 | CCC/C(=N\OCc1ccc(Cl)cc1Cl)c1cc(Cl)ccc1NS(=O)(=O)C(F)(F)F |  | 88 | 3.6 |  | 
40 | N#Cc1nn(-c2c(Cl)cc(C(F)(F)F)cc2Cl)c(N)c1[S+]([O-])C(F)(F)F (stereo not given) [FIPRONIL] |  |  |  |  | 0.1
41 | CCO/N=C(\C)c1cccc(OC)c1NS(=O)(=O)C(F)(F)F |  | 45 | >15 |  | 
42 | CC/C(=N\Oc1ccc(Br)cc1)c1cc(Cl)ccc1NS(=O)(=O)C(F)(F)F |  | 78 | 3.7 |  | 
43 | C/C(=N\OC(C)(C)C)c1cc(Cl)ccc1NS(=O)(=O)C(F)(F)F | 92 | 100 | 16 | 1.4 | 41
44 | CC/C(=N\Oc1ccc(Cl)cc1)c1cc(Cl)ccc1NS(=O)(=O)C(F)(F)F | 95 | 100 | 1 |  | 51

Row | SMILES | Activity [1] [%] | Activity [2] [%] | LD99 [3] [µM] | LD50 [4] [µg] | LC50 [5] [ng/cm2]
45 | CC/C(=N\Oc1ccc(F)cc1)c1cc(Cl)ccc1NS(=O)(=O)C(F)(F)F | 92 | 100 | 3.5 | 1.5 | 35
46 | CCC/C(=N\OCC1CCCCC1)c1cc(Cl)ccc1NS(=O)(=O)C(F)(F)F |  | 70 | 11 |  | 
47 | CC/C(=N\OCc1ccccc1C(F)(F)F)c1cc(Cl)ccc1NS(=O)(=O)C(F)(F)F | 31 | 96 | 2.7 |  | 36
48 | C/C(=N\Oc1ccc(F)cc1)c1cc(Cl)ccc1NS(=O)(=O)C(F)(F)F | 100 | 100 | 4.6 | 1.3 | 10
49 | CCO/N=C(\C)c1cc(Br)ccc1NS(=O)(=O)C(F)(F)F | 100 | 100 | >13 | 1.2 | 11
50 | CC/C(=N\OCc1ccc(C(F)(F)F)cc1)c1cc(Cl)ccc1NS(=O)(=O)C(F)(F)F | 90 | 98 | 0.84 | 2.7 | 17
51 | CC/C(=N\OCc1cccs1)c1cc(Cl)ccc1NS(=O)(=O)C(F)(F)F | 70 | 100 | 35 | 2.5 | 7
52 | CC/C(=N\Oc1cccc(Cl)c1)c1cc(Cl)ccc1NS(=O)(=O)C(F)(F)F |  | 100 | 3.6 |  | 
53 | CC/C(=N\OCc1ccc(Cl)c(Cl)c1)c1cc(Cl)ccc1NS(=O)(=O)C(F)(F)F |  | 100 | 1.3 |  | 
54 | CCO/N=C(\C)c1ccc(F)cc1NS(=O)(=O)C(F)(F)F | 8 | 100 | >15 |  | 
55 | C/C(=N\OCC1CC1)c1cc(Cl)ccc1NS(=O)(=O)C(F)(F)F | 100 | 100 |  | 1 | 5
56 | CC/C(=N\OC1CCCCC1)c1cc(Cl)ccc1NS(=O)(=O)C(F)(F)F | 100 | 100 |  | 5.7 | 
57 | C#CCO/N=C(\C)c1cc(Cl)ccc1NS(=O)(=O)C(F)(F)F | 100 | 100 |  | 0.99 | 11
58 | CC/C(=N\Oc1ccc(Cl)cc1)c1ccc(C(F)(F)F)cc1NS(=O)(=O)C(F)(F)F | 17 | 100 |  |  | 
59 | C/C(=N\OC(C)C)c1cc(Cl)ccc1NS(=O)(=O)C(F)(F)F | 95 | 100 |  |  | 
60 | COCCO/N=C(\C)c1cc(Cl)ccc1NS(=O)(=O)C(F)(F)F | 100 | 100 |  | 0.71 | 12
61 | C/C(=N\OCc1ccc(Cl)cc1)c1cc(Cl)ccc1NS(=O)(=O)C(F)(F)F | 72 | 100 | 3 |  | 
62 | CC/C(=N\OC(C)C)c1cc(Cl)ccc1NS(=O)(=O)C(F)(F)F | 100 | 100 |  |  | 
63 | CC1(C)C(C=C(Cl)Cl)C1C(=O)OCc1cccc(Oc2ccccc2)c1 (stereo not given) |  |  |  | 0.14 | 
64 | CC/C(=N\OCCOC)c1cc(Cl)ccc1NS(=O)(=O)C(F)(F)F | 95 | 100 |  |  | 
65 | CC/C(=N\OCC1CCCCC1)c1ccc(C(F)(F)F)cc1NS(=O)(=O)C(F)(F)F | 17 | 97 |  |  | 

Source: ChEMBL document CHEMBL1140776, “Parasiticidal 2-alkoxy- and 2-aryloxyiminoalkyl trifluoromethanesulfonanilides” (2008)
